Earlier results, collected in patent US20180140572A1, “COMPOSITIONS COMPRISING A CANCER STEMNESS INHIBITOR AND AN IMMUNOTHERAPEUTIC AGENT FOR USE IN TREATING CANCER” (Boston Biomedical, Inc., priority 2015, published 2018).

Test system: microsatellite stable (MSS) metastatic colorectal cancer (mCRC)
Details: patients with MSS mCRC, cited from earlier work

For “pembrolizumab: immunotherapeutic agent that binds to PD-1”, the “immune-related progression-free survival at 20 weeks” value (20 weeks) is listed as 11%, the disease control rate is listed as 11% and the effectiveness is listed as “not effective”. The “immune-related objective response rate” value was 0% and the response rate was 0%.
